Here are results for ten compounds from US5491146A, “Hydroxylated erythro-hydroxynonyladenines and related analogs” (Cypros Pharmaceutical Corporation, priority 1994, dated 1996).

Data set [1] has as its system intact hearts from male Sprague-Dawley rats. Nature of the data set: Langendorf isolated perfused heart, simulated ischemia 20 minutes then reoxygenation. On the set-up: species or system rat. Conditions: for % fibr.: isolated rat hearts, 10 min drug treatment, 20 min ischemia; for # fibrillating: number of hearts fibrillating out of Total #. The source says:
The tests carried out by Dr. Rodgers used a widely-used protocol known as a "Langendorf" preparation, which involves removing intact hearts from sacrificed lab animals (male Sprague-Dawley rats were used), and perfusing the hearts with liquids containing controlled quantities (or deficits) of oxygen and glucose for fixed periods of time. […] The left atrium is filled at 15 cm H2 O pressure, and the left ventricle ejects into a buffer-filled column against a pressure which equates to 72 mm Hg, except during ischemic periods. The perfusate was Krebs-Henseleit buffer with HCO3 (25 mM), Ca^++ (2.2 mM), and glucose (10 mM). […] Pefusate and ambient temperatures were held at 37° C. and the hearts were allowed to beat spontaneously.
Following stabilization and treatment, the hearts were subjected to simulated ischemia for 20 minutes; no oxygen was added to the perfusate during this period. When the ischemic period ended, oxygen was again added to the perfusion buffer, and the following parameters were measured over a period of 10 minutes:
LVPP--left ventricular pulse pressures (time-dependent pressures, calculated as peak pressure minus diastolic pressure, in mm Hg, millimeters of mercury column)
LVEDP--left ventricular end diastolic pressure (i.e, time-dependent pressures as the ventricle relaxed during diastolic filling, in mm Hg)
CFR--coronary flow rate (mL/min)
HR--spontaneous heartbeat rate (beats/min)
ECG--electrocardiogram (surface potential, in mV)

The conditions of data set [2]: mammalian bloodstream; cited from earlier work.
Data set [3] deals with adenosine deaminase (ADA). To be noted: read-out: Ki value (ADA); background statement; cited from earlier work.
The target of data set [4] is T1, calf intestinal ADA (Type III, Sigma Chemical Company) (Bos taurus, UniProt P56658).
T1 construct: purchased Sigma Chemical Company Type III; host or cells: calf intestine
T1 sequence (P56658 1-363): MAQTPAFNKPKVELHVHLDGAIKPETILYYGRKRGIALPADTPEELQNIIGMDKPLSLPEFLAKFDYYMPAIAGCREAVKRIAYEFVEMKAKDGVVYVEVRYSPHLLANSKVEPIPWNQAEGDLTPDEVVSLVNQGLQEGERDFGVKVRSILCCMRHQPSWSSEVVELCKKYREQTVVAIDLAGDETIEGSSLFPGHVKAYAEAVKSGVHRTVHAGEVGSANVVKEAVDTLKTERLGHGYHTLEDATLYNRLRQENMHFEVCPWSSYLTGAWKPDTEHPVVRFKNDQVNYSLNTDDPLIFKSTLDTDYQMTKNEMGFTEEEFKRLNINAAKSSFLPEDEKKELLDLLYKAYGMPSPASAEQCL
In words: Testing for ADA inhibition, direct spectrophotometric assay at 265 nm. Format: biochemical. To be noted: for Ki: calf intestinal ADA, 30° C.; for inhibition of ADA activity (in words): tested as in Example 2. Here is the method: Compounds [10] (the 9-hydroxy analog), [23] (the 8-hydroxy analog), and [14] (the 8,9-dihydroxy analog) were tested for ADA inhibition activity, using calf intestinal ADA (Type III, Sigma Chemical Company) measured at 30° C. by direct spectrophotometric assays at 265 nm, as described in Harriman et al 1992.
Several of the analogs described in Example 3 were tested for inhibition of the adenosine deaminase (ADA) enzyme, using the procedures described in Example 2.

For data set [5] the following is noted: animals; cited from earlier work.
Setting [6] is: isolated rat hearts after ischemia.
The mark [7] stands for this setting: read-out: Ki values (ADA inhibition).
Where [8] appears, read: read-out: Ki value (ADA inhibition).

Like-named read-outs stand apart in the source and are kept apart here.

The term Ki denotes the equilibrium dissociation constant of an inhibitor or competing ligand from its target.

`CCCCCC[C@H]([C@H](C)O)n1cnc2c(N)ncnc21` (relative stereo) [EHNA, erythro-hydroxynonyladenine]: in data set [1] (setting [6]), the “LVPP (left ventricular pulse pressure) after ischemia” value is given as “moderate increase”, the “coronary flow rate after ischemia” value is listed as “moderate increase” and the “incidence of fibrillation (in words)” value was “reduced the incidence of fibrillation”. In addition, in data set [1], the “% fibr.” value was 14% and the “# fibrillating” value is given as 1. For the same compound, the “metabolism and clearance from bloodstream” value in data set [2] was “metabolized and cleared from the mammalian bloodstream fairly rapidly”. Moreover, the Ki in data set [3] is about 4 nM.

With `COC(=O)CCCCC[C@H]([C@H](C)O)n1cnc2c(N)ncnc21` [Compound 31], in data set [4] (setting [7]), the inhibition constant (Ki) was determined as 5 nM. The “inhibition of ADA activity (in words)” value in data set [4] was “potency in the desired range”.

In data set [4] (Ki values (ADA inhibition)), `C=CCCCC[C@H]([C@H](C)O)n1cnc2c(N)ncnc21` [Compound 32, 9-[2(S)-hydroxy-3(R)-non-8-enyl]adenine] had a Ki of 2.5 nM. The “inhibition of ADA activity (in words)” value in data set [4] was “potency in the desired range”.

Turning to `CCN(CC)C(=S)SSC(=S)N(CC)CC` [Disulfiram, disulfiram], in data set [1], the “% fibr.” value is reported as 40% and the “# fibrillating” value is recorded as 2.

In the case of `C[C@H](O)[C@@H](CCCCCCCl)n1cnc2c(N)ncnc21` [Compound 29, 9-[9-chloro-2(S)-hydroxy-3(R)-nonyl]adenine], the Ki in data set [4] (setting [7]) came to 3.7 nM. In data set [4], the “inhibition of ADA activity (in words)” value was “potency in the desired range”.

For the compound `CC(O)CCCC[C@H]([C@H](C)O)n1cnc2c(N)ncnc21` (single isomer, unassigned) [Compound 23], the inhibition constant Ki in data set [4] (setting [8]) and in data set [4] (setting [7]) was 11 nM each time. Further, in data set [4], the “inhibition of ADA activity (in words)” value is “shown to inhibit ADA activity”.

For `C[C@H](O)[C@@H](CCCCCCO)n1cnc2c(N)ncnc21` [Compound 10], in data set [1] (setting [6]), the “LVPP (left ventricular pulse pressure) after ischemia” value is listed as “moderate increase”, the “coronary flow rate after ischemia” value is “moderate increase” and the “incidence of fibrillation (in words)” value is given as “reduced the incidence of fibrillation”. Further, the “LVEDP (left ventricular end diastolic pressure), protection against muscle stiffening” value in data set [1] (isolated rat hearts after ischemia, compared with EHNA) is “significantly higher level of protection against muscle stiffening than unmodified EHNA”. Also, in data set [1], the “% fibr.” value is reported as 11% and the “# fibrillating” value was 1. Moreover, the Ki in data set [4] (setting [8]) worked out at 3.4 nM. Also, the Ki in data set [4] (setting [7]) came to 3.4 nM. Further, in data set [4], the “inhibition of ADA activity (in words)” value was “effective inhibitor of ADA activity”.

Regarding `C[C@H](O)[C@@H](CCCCCCOC(=O)c1ccccc1)n1cnc2c(N)ncnc21` [Compound 25, 9-[9-Benzoyloxy-2(S)-hydroxy-3(R)-nonyl]adenine], the “inhibition of ADA activity (in words)” value in data set [4] was “potency in the desired range”.

On to `OC[C@H]1O[C@@H](n2cnc3c2NC=NC[C@H]3O)C[C@@H]1O` [dCF, deoxycoformycin], for which the toxic side effects result in data set [5] is “serious and unpredictable toxic side effects in some animals”.

Consider `C[C@H](O)[C@@H](CCCCC(O)CO)n1cnc2c(N)ncnc21` (single isomer, unassigned) [Compound 14], for which the Ki in data set [4] (setting [8]) and in data set [4] (setting [7]) was 6 nM in each case. Also, the “inhibition of ADA activity (in words)” value in data set [4] is “effective inhibitor of ADA activity”.
